Patent US8541573B2, “Substituted sulfonamide compounds” (Gruenenthal GmbH, priority 2008, dated 2013)
Where a name gives a salt, the structure may show the parent alone.

Experiments:
human B1R = biological target: T1, human B1R (Homo sapiens, UniProt P46663); test: Functional investigation on the bradykinin 1 receptor (B1R), cell-based fluorescent calcium-mobilization assay (FLIPR/Novostar), human; details: 10 μM test substance, CHO K1 cells stably transfected with human B1R gene, agonist Lys-Des-Arg9-bradykinin at EC80, % inhibition compared with maximum achievable inhibition; for inhibition at 10 µM: read-out: B1R antagonism, human [10 μM] % inhibition
T1 construct: expressed in transfected cells; host or cells: CHO K1 cells
T1 sequence (P46663 1-353): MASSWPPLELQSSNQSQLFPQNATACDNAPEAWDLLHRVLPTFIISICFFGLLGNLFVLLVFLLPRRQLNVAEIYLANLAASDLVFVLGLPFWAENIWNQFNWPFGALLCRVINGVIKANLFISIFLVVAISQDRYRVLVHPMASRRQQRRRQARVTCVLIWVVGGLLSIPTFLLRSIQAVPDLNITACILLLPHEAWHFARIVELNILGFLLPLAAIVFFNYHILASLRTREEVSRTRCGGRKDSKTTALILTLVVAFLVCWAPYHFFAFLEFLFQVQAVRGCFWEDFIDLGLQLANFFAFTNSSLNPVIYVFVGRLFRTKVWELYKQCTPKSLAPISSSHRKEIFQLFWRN
Experimental: (§1) The agonistic or antagonistic action of substances can be quantified on the bradykinin 1 receptor (B1R) of the human and rat species with ectopically expressing cell lines (CHO K1 cells) and with the aid of a Ca^2+-sensitive dyestuff (Fluo-4) in a fluorescent imaging plate reader (FLIPR). The figure in % activation is based on the Ca^2+ signal after addition of Lys-Des-Arg^9-bradykinin (0.5 nM) or Des-Arg^9-bradykinin (100 nM). Antagonists lead to a suppression of the Ca^2+ inflow after addition of the agonist. % inhibition compared with the maximum achievable inhibition is stated.
(§2) The agonistic or antagonistic action of substances can be determined on the bradykinin 1 receptor (B1R) of humans and rats by means of a cell-based flourescent calcium-mobilization assay. According to this assay agonist-induced increase of intracellular free Ca^2+ is quantified by means of a Ca^2+-sensitive dye (Fluo-4 type, Molecular Probes Europe BV, Leiden, Netherlands), in a Fluorescent Imaging Plate Reader (FLIPR, Molecular Devices, Sunnyvale, USA) and/or the Novostar (BMG Labtech GmbH, Offenburg, Germany).
(§3) Chinese hamster ovary cells (CHO K1 cells), which are stably transfected with the human B1R gene (hB1R cells) or with the B1R gene of rats (rB1R cells), are used. For functional investigations these cells are seeded into black 96-well plates with a clear bottom (BD Biosciences, Heidelberg, Germany or Greiner, Frickenhausen, Germany) in a density of 20,000-35,000 cells/well. The cells are incubated overnight in a humidified atmosphere at 37° C. and 5% CO2 in culture medium (hB1R cells: Nutrient Mixture Ham's F12, Gibco Invitrogen GmbH, Karlsruhe, Germany or DMEM, Sigma-Aldrich, Taufkirchen, Germany; rB1R cells: D-MEM/F12, Gibco Invitrogen GmbH, Karlsruhe, Germany) with 10 vol. % FBS (foetal bovine serum, Gibco Invitrogen GmbH, Karlsruhe, Germany).
(§4) On the following day the cells are loaded with the Ca^2+-sensitive dye Fluo-4-AM (Molecular Probes Europe BV, Leiden, Netherlands):
(§5) Method A: The medium of the cells is removed and cell plates are incubated with loading solution, which contains 2.13 μM Fluo-4-AM, 2.5 mM probenecid (Sigma-Aldrich, Taufkirchen, Germany), and 10 mM HEPES (Sigma-Aldrich, Taufkirchen, Germany) in HBSS buffer (Hank's buffered saline solution, Gibco Invitrogen GmbH, Karlsruhe, Germany) for 60 minutes at 37° C. After the plates are washed twice with HBSS buffer, HBSS buffer supplemented 0.1% BSA (bovine serum albumin; Sigma-Aldrich, Taufkirchen, Germany), 5.6 mM glucose and 0.05% gelatine (Merck KGaA, Darmstadt, Germany) is added. Cell plates are incubated for at least 20 minutes in the dark at room temperature before they are used for the Ca^2+ measurement in the FLIPR or Novostar.
(§6) Method B: The plates are washed with buffer A (15 mM HEPES, 80 mM NaCl, 5 mM KCl, 1.2 mM CaCl2, 0.7 mM MgSO4, 2 mg/ml glucose, 2.5 mM probenecid) and subsequently loaded with buffer A containing 2.4 μM Fluo-4-AM and 0.025% pluronic F127 (Sigma-Aldrich, Taufkirchen, Germany) for 60 minutes at 37° C. Cell plates are washed twice with buffer A. Then, buffer A supplemented with 0.05% BSA and 0.05% gelatine is added and cell plates are incubated in the dark at room temperature for at least 20 minutes before measurement in the FLIPR or Novostar is started.
(§7) The Ca^2+-dependent fluorescence is measured both before and after the addition of substances (λex=488 nm, λem=540 nm). For quantification of the effect the highest fluorescence intensity (FC, fluorescence counts) over time is given. The FLIPR protocol consists of two substance additions, done within the instrument while continuously monitoring the Ca^2+-dependent fluorescence at 540 nm. When the Novostar was used, one addition had to be done outside the instrument. Test substances (10 μM) are initially pipetted onto the cells and the intracellular Ca^2+ rise is compared with the control (hB1R: Lys-Des-Arg9-bradykinin>=50 nM; rB1R: Des-Arg9-bradykinin>=1 μM). […]

B1R of rats = biological target: T2, B1R of rats (Rattus norvegicus, UniProt P97583); test: Functional investigation on the bradykinin 1 receptor (B1R), cell-based fluorescent calcium-mobilization assay (FLIPR/Novostar), rat; details: 10 μM test substance, CHO K1 cells stably transfected with rat B1R gene, agonist Des-Arg9-bradykinin at EC80, % inhibition compared with maximum achievable inhibition; for inhibition at 10 µM: read-out: B1R antagonism, rat [10 μM] % inhibition
T2 construct: expressed in transfected cells; host or cells: CHO K1 cells
T2 sequence (P97583 1-337): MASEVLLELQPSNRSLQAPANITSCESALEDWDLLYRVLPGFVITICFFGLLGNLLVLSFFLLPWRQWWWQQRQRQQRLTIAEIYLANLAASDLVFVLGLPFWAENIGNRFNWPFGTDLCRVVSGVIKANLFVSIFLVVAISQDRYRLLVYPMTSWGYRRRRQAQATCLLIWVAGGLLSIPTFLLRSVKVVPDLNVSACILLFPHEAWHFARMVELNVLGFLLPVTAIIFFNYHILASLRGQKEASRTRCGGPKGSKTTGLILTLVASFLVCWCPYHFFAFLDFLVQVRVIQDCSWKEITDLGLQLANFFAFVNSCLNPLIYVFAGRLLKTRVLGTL
Experimental: as §1, §2, §3, §4, §5, §6, §7

SMILES	inhibition at 10 µM (human B1R)	inhibition at 10 µM (B1R of rats)	B1R antagonism, human [10 μM] % inhibition (human B1R; hydrochloride, 10 µM)	B1R antagonism, rat [10 μM] % inhibition (B1R of rats; hydrochloride, 10 µM)
COc1cc(C)c(S(=O)(=O)N2c3ccccc3OCC2COCC(=O)N2CCC(CNC(=O)c3ccncc3)(N3CCN(C)CC3)CC2)c(C)c1 (centres unmarked) [Example 49, N-((1-(2-((4-(4-Methoxy-2,6-dimethylphenylsulfonyl)-3,4-dihydro-2H-benzo[b][1,4]oxazin-3-yl)methoxy)acetyl)-4-(4-methylpiperazin-1-yl)piperidin-4-yl)methyl)isonicotinamide]	100%	102%		
Cc1cccc(Cl)c1S(=O)(=O)N1c2ccccc2OCC1COCC(=O)N1CCC(CNC(=O)c2ccncc2)(N2CCN(C)CC2)CC1 (centres unmarked) [Example 50, N-((1-(2-((4-(2-Chloro-6-methylphenylsulfonyl)-3,4-dihydro-2H-benzo[b][1,4]oxazin-3-yl)methoxy)acetyl)-4-(4-methylpiperazin-1-yl)piperidin-4-yl)methyl)isonicotinamide]	96%	102%		
COc1cc(C)c(S(=O)(=O)N(CCOCC(=O)N2CCC(CNC(=O)c3ccncc3)(N3CCN(C4CC4)CC3)CC2)C2CC2)c(C)c1 [Example 44, N-((1-(2-(2-(N-Cyclopropyl-4-methoxy-2,6-dimethylphenylsulfonamido)ethoxy)acetyl)-4-(4-cyclopropylpiperazin-1-yl)piperidin-4-yl)methyl)isonicotinamide]	100%	102%		
Cc1cc(S(=O)(=O)N2CCCCC2CCC(=O)N2CCC(CNC(=O)c3cccnc3)(N3CCN(C)CC3)CC2)c(C)cc1Cl (centres unmarked) [Example 33, N-((1-(3-(1-(4-chloro-2,5-dimethylphenylsulfonyl)piperidin-2-yl)propanoyl)-4-(4-methylpiperazin-1-yl)piperidin-4-yl)methyl)nicotinamide]	103%	100%		
CN1CCN(C2(CNC(=O)c3ccccn3)CCN(C(=O)CC3CCCCN3S(=O)(=O)c3cccc(C(F)(F)F)c3)CC2)CC1 (centres unmarked) [Example 18, N-((4-(4-methylpiperazin-1-yl)-1-(2-(1-(3-(trifluoromethyl)phenylsulfonyl)-piperidin-2-yl)acetyl)piperidin-4-yl)methyl)picolinamide]	97%	17%		
COc1cc(C)c(S(=O)(=O)N2c3ccccc3C[C@H]2COCC(=O)N2CCC(CNC(=O)c3ccncc3)(N3CCN(C4CC4)CC3)CC2)c(C)c1 [Example 45, (S)—N-((4-(4-Cyclopropylpiperazin-1-yl)-1-(2-((1-(4-methoxy-2,6-dimethylphenylsulfonyl)indolin-2-yl)methoxy)acetyl)piperidin-4-yl)methyl)isonicotinamide]	100%	102%		
CC(=O)NCC1(N2CCN(c3ccncc3)CC2)CCN(C(=O)COCC2CCc3ccccc3N2S(=O)(=O)c2ccc(Cl)c(Cl)c2)CC1 (centres unmarked) [Example 17, N-((1-(2-((1-(3,4-dichlorophenylsulfonyl)-1,2,3,4-tetrahydroquinolin-2-yl)methoxy)acetyl)-4-(4-(pyridin-4-yl)piperazin-1-yl)piperidin-4-yl)methyl)acetamide]	104%	101%		
COc1cc(C)c(S(=O)(=O)N(C)CCOCC(=O)N2CCC(CNC(=O)c3ccncc3)(N3CCN(C)CC3)CC2)c(C)c1 [Example 48, N-((1-(2-(2-(4-Methoxy-N,2,6-trimethylphenylsulfonamido)ethoxy)acetyl)-4-(4-methylpiperazin-1-yl)piperidin-4-yl)methyl)isonicotinamide hydrochloride]			100%	97%
CN1CCN(C2(CNC(=O)Cc3ccccc3)CCN(C(=O)COCC3CCc4ccccc4N3S(=O)(=O)c3ccc(Cl)c(Cl)c3)CC2)CC1 (centres unmarked) [Example 13, N-((1-(2-((1-(3,4-dichlorophenylsulfonyl)-1,2,3,4-tetrahydroquinolin-2-yl)methoxy)acetyl)-4-(4-methylpiperazin-1-yl)piperidin-4-yl)methyl)-2-phenylacetamide]	104%	52%		
COc1cc(C)c(S(=O)(=O)N2CCCCC2COCC(=O)N2CCC(CNC(=O)c3ccccn3)(N3CCN(C)CC3)CC2)c(C)c1 (centres unmarked) [Example 21, N-((1-(2-((1-(4-methoxy-2,6-dimethylphenylsulfonyl)piperidin-2-yl)methoxy)acetyl)-4-(4-methylpiperazin-1-yl)piperidin-4-yl)methyl)picolinamide]	103%	101%		
Cc1cccc(Cl)c1S(=O)(=O)N(CCOCC(=O)N1CCC(CNC(=O)c2ccncc2)(N2CCN(C3CC3)CC2)CC1)C1CC1 [Example 43, N-((1-(2-(2-(2-Chloro-N-cyclopropyl-6-methylphenylsulfonamido)ethoxy)-acetyl)-4-(4-cyclopropylpiperazin-1-yl)piperidin-4-yl)methyl)-isonicotinamide]	100%	103%		
COc1cc(C)c(S(=O)(=O)N2CCCCC2COCC(=O)N2CCC(CNC(=O)Cc3ccccc3)(N3CCN(C)CC3)CC2)c(C)c1 (centres unmarked) [Example 3, N-((1-(2-((1-(4-methoxy-2,6-dimethylphenylsulfonyl)piperidin-2-yl)methoxy)acetyl)-4-(4-methylpiperazin-1-yl)piperidin-4-yl)methyl)-2-phenylacetamide]	103%	104%		
Cc1cc(S(=O)(=O)N2CCCCC2CCC(=O)N2CCC(CNC(=O)c3ccncc3)(N3CCN(C)CC3)CC2)c(C)cc1Cl (centres unmarked) [Example 26, N-((1-(3-(1-(4-chloro-2,5-dimethylphenylsulfonyl)piperidin-2-yl)propanoyl)-4-(4-methylpiperazin-1-yl)piperidin-4-yl)methyl)isonicotinamide]	103%	45%		
